# Measurements from PubChem BioAssay (NCI).
#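 Cells were grown in 96-well plates and exposed to each compound for 48 hours at five concentrations; endpoints were interpolated linearly between bracketing concentrations, or set to the highest concentration if not reached. TGI: total growth inhibition.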
# How the values were obtained:
# Assay in all cases: NCI-60 cell line screen, 48 h
# LOX IMVI melanoma = tested on: LOX IMVI melanoma
# HCT-15 colon = tested on: HCT-15 colon
# RXF 393 renal = tested on: RXF 393 renal
# MOLT-4 leukemia = tested on: MOLT-4 leukemia
# MCF7 breast = tested on: MCF7 breast
# SK-MEL-5 melanoma = tested on: SK-MEL-5 melanoma
# HCT-116 colon = tested on: HCT-116 colon
# NCI-H522 lung = tested on: NCI-H522 lung
# PC-3 prostate = tested on: PC-3 prostate
# M14 melanoma = tested on: M14 melanoma
# T-47D breast = tested on: T-47D breast
# ACHN renal = tested on: ACHN renal
# MALME-3M melanoma = tested on: MALME-3M melanoma
SMILES,TGI (LOX IMVI melanoma),TGI (HCT-15 colon),TGI (RXF 393 renal),TGI (MOLT-4 leukemia),TGI (MCF7 breast),TGI (SK-MEL-5 melanoma),TGI (HCT-116 colon),TGI (NCI-H522 lung),TGI (PC-3 prostate),TGI (M14 melanoma),TGI (T-47D breast),TGI (ACHN renal),TGI (MALME-3M melanoma)
Nc1nc(=O)n(C2OC(CO)C(O)C2O)cc1F (stereo not given),> 38 µM,> 100 µM,> 100 µM,0.268 µM,> 100 µM,> 100 µM,> 100 µM,> 100 µM,,,,,
C=CCC1(O)c2cccc(O)c2C(=O)c2c(O)cccc21,57.2 µM,47.9 µM,53.4 µM,> 100 µM,> 100 µM,85.9 µM,57.7 µM,75.8 µM,88 µM,59.3 µM,78.3 µM,> 100 µM,
Nc1ncnc2c1ncn2CC(OCP(=O)(O)O)Oc1ccccc1 (stereo not given),> 100 µM,> 100 µM,> 100 µM,,> 100 µM,> 100 µM,> 100 µM,,> 100 µM,> 100 µM,> 100 µM,> 100 µM,
COc1ccc(C2=C(OC(C)=O)c3cccn3-c3ccccc3S2)cc1,> 10 µM,> 10 µM,6.44 µM,> 10 µM,> 10 µM,> 10 µM,,,> 10 µM,> 10 µM,> 10 µM,,> 10 µM
CCOc1ccc(N=Cc2cc(OC)c(OC)c(OC)c2)cc1,> 100 µM,> 100 µM,> 100 µM,> 100 µM,,> 100 µM,> 100 µM,> 100 µM,,> 100 µM,,> 100 µM,> 100 µM
CCCCCCCCCCCCCCCCCCNc1ccn(C2OC(CO)C(OP(=O)(O)OCC3CCC(n4ccc(N)nc4=O)O3)C2O)c(=O)n1 (stereo not given),> 100 µM,> 100 µM,45.1 µM,10.2 µM,,> 100 µM,> 100 µM,> 100 µM,40.6 µM,> 100 µM,> 100 µM,> 100 µM,94.8 µM
CC(=O)Oc1ccc(-c2cc3ccccc3oc2=O)cc1OC(C)=O,> 100 µM,> 100 µM,,> 100 µM,> 100 µM,,> 100 µM,> 100 µM,> 100 µM,> 100 µM,> 100 µM,> 100 µM,> 100 µM
CCC(C)(C)NC1=C(NC(C)=O)C(=O)c2ccccc2C1=O,> 75 µM,> 75 µM,> 75 µM,31.6 µM,,26 µM,> 75 µM,28.7 µM,,> 75 µM,,43.2 µM,> 75 µM
C=CCCCC1(C)CCCCNC1=O (stereo not given),> 10 µM,> 10 µM,> 10 µM,> 10 µM,> 10 µM,> 10 µM,> 10 µM,,> 10 µM,> 10 µM,> 10 µM,> 10 µM,> 10 µM
N#Cc1c(N2CCOCC2)ncn(-c2ccccc2)c1=O,> 100 µM,> 100 µM,,> 100 µM,> 100 µM,> 100 µM,> 100 µM,,> 100 µM,> 100 µM,> 100 µM,> 100 µM,
